Reference: publication PMC2854715, “Oxpholipin 11D: An Anti-Inflammatory Peptide That Binds Cholesterol and Oxidized Phospholipids” (PLoS ONE, 2010)
Read-outs that look alike come from different tables or passages of the source. Non-standard residues stand in square brackets, D forms with d.

Columns and labels:
Bovine albumin = target: T1, Bovine albumin (Bos taurus, UniProt P02769); details: SPR; mean ± SEM; read-out: KD ± SEM, bovine albumin (control); cited from earlier work
T1 construct: purchased Sigma-Aldrich
T1 sequence (P02769 25-607): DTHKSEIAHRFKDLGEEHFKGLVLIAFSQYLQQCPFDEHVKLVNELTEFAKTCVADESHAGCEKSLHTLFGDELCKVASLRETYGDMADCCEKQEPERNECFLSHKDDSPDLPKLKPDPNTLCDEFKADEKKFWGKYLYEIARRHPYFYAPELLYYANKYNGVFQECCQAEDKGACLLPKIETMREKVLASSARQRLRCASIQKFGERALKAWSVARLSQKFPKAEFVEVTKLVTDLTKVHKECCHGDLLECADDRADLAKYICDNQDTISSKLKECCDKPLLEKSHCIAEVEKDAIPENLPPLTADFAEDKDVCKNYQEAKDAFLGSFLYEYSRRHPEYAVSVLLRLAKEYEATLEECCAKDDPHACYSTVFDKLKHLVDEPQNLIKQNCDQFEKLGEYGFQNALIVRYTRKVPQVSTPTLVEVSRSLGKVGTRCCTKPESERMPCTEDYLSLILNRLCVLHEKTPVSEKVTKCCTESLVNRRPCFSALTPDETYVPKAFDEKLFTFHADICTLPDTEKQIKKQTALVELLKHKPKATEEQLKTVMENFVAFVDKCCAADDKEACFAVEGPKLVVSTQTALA
Source text: (§1) Table 3 Binding of OxP-11D and D-4F to oxidized and nonoxidized (phospho)lipids and sterols. | column: apoA-I; KD ± SEM (M) / D-4F

human RBCs = test: Inhibition of CDC-mediated hemolysis; assay type: cell-based; details: data not shown
[1] = system: LDL-induced monocyte chemotaxis in cultured human aortic endothelial cells (HAEC); test: Monocyte chemotaxis assay (LDL-treated HAEC cultures); assay type: cell-based; details: for Monocyte chemotactic activity, dose response: Figure 2; for Monocyte chemotactic activity, Inflammatory Index (II): peptide 1 µg/ml, HAEC treated with LDL 250 µg/ml 8 h, standardized to LDL, II<1 anti-inflammatory, Figure 1
Method: Normal human monocytes were isolated as previously described. Human aortic endothelial cells (HAEC) were isolated and maintained as previously reported. Acquisition and use of these cells was in accordance with protocols approved by the UCLA Human Research Subject Protection Committee.
(§2) As previously described, [64], HAEC cells were treated with native LDL (250 µg/ml) in the absence or presence of HDL or tested peptides for 8 h. After these cultures were washed, the medium was replaced by fresh Medium 199 and the cultures were incubated for an additional 8 h. This culture medium was collected and assayed for monocyte chemotactic activity using chambers purchased from Neuroprobe (Cabin John, MD). After monocytes were added to the upper compartment, the chamber was incubated for 60 min at 37°C and subsequently disassembled. The membrane was rinsed, air dried, fixed with 1% glutaraldehyde, stained with 0.1% crystal violet dye, and 12 standardized high power fields were examined microscopically. The number of migrated monocytes was expressed as the mean ±SD of monocytes counted. Values obtained in the absence of HDL were normalized to a value of 1.0. Normalized values >1.0 after HDL addition were considered to be pro-inflammatory, and values <1.0 as being anti-inflammatory.

apoE deficient mice = test: In vivo activity in apoE deficient mice: HDL inflammatory index
Method: as §2
ApoE null mice on a C57BL/6J background, originally from Jackson Laboratories (Bar Harbor, ME), were maintained in a breeding colony in the Department of Laboratory and Animal Medicine at the David Geffen School of Medicine at UCLA. The mice were maintained on a chow diet (Ralston Purina, St. Louis, MO).
Six hours later, and with continued fasting, blood was removed from the retro-orbital sinus under mild isoflurane anesthesia, and anticoagulated with heparin (2.5 U/ml). Plasma was obtained and fractionated by FPLC. HDL-containing fractions were tested in HAEC cultures for their ability to inhibit LDL-induced monocyte chemotactic activity. All procedures conformed to regulations of the UCLA Animal Research Committee. An HDL inflammatory index was determined using the standard monocyte chemotaxis assay. Indices >1 were interpreted as pro-inflammatory, and indices <1 as anti-inflammatory.

[2] = SPR, mean ± SEM, cited from earlier work
Source text: as §1

[3] = peptide 0.01 µg/ml (10 ng/ml) versus 1 µg/ml
[4] = peptide 0.1 µg/ml versus 1 µg/ml
[5] = read-out: KD ± SEM, 12(S)-HPETE
[6] = read-out: KD ± SEM, 13(S)-HPODE
[7] = read-out: KD ± SEM, 15(S)-HPETE
[8] = read-out: KD ± SEM, arachidonic acid
[9] = read-out: KD ± SEM, linoleic acid
[10] = read-out: KD ± SEM, palmitic acid

Substance | Kd (Bovine albumin) [µM] | Monocyte chemotactic activity, dose response [1, 3] | Monocyte chemotactic activity, dose response [1, 4] | Monocyte chemotactic activity, Inflammatory Index (II) [1] | Kd ([2]; read-out: KD ± SEM, 5(S)-HPETE) [µM] | Kd ([2]; read-out: KD ± SEM, 9(S)-HODE) [µM] | Kd ([2]; read-out: KD ± SEM, 12(S)-HETE) [µM] | Kd [2, 5] [µM] | Kd ([2]; read-out: KD ± SEM, 13(S)-HODE) [µM] | Kd [2, 6] [µM] | Kd ([2]; read-out: KD ± SEM, 15(S)-HETE) [µM] | Kd [2, 7] [µM] | Kd ([2]; read-out: KD ± SEM, KOdiA-PC) [µM] | Kd ([2]; read-out: KD ± SEM, PEIPC) [µM] | Kd ([2]; read-out: KD ± SEM, POVPC) [µM] | Kd [2, 8] [µM] | Kd [2, 9] [µM] | Kd [2, 10] [µM] | also measured
Ac-DWFKAFYDKVAEKFKEAF-NH2 (Ac-[dD][dW][dF][dK][dA][dF][dY][dD][dK][dV][dA][dE][dK][dF][dK][dE][dA][dF]-NH2) [D-4F, a prominent apoA-I-mimetic peptide, Ac-…-NH2, reference compound] | 3.9 | – | – | – | – | – | – | – | – | – | – | – | – | – | – | – | – | – | –
RE-Ctb-Thr-G-Leu-Ala-Trp-E-Trp-Trp-RT-Val-NH2 [OxP-2] | – | – | – | – | – | – | – | – | – | – | – | – | – | – | – | – | – | – | Inhibition of CDC-mediated hemolysis (human RBCs): enhanced the peptide's ability to inhibit CDC-mediated hemolysis
Aib-RE-Ctb-Val-R-Leu-Val-Trp-E-Trp-Trp-RE-Val-NH2 [OxP-13] | – | reduced activity substantially | relatively small decrease in activity | very similar activity | – | – | – | – | – | – | – | – | – | – | – | – | – | – | –
RE-Dpa-Thr-G-Leu-Ala-Trp-E-Trp-Trp-RT-Val-NH2 [OxP-11] | – | reduced activity substantially | relatively small decrease in activity | very similar activity | – | – | – | – | – | – | – | – | – | – | – | – | – | – | HDL Inflammatory Index in vivo (apoE deficient mice; lower doses 0.5 and 0.1 mg/kg subcutaneously, apoE deficient mice, Figure 3B): considerably less active than L-4F
Ac-DWFKAFYDKVAEKFKEAF-NH2 [D-4F, a prominent apoA-I-mimetic peptide, Ac-…-NH2, reference compound] | – | – | – | very similar activity | 0.018 | 0.015 | 0.018 | 0.17 | 0.011 | 0.021 | 0.022 | 0.051 | 0.00058 | 6e-05 | 0.0024 | 0.012 | 0.015 | 0.67 | Kd ([2]; read-out: KD ± SEM, 4β-hydroxycholesterol): 31 µM; Kd ([2]; read-out: KD ± SEM, 20(S)-hydroxycholesterol): 3.9 µM; Kd ([2]; read-out: KD ± SEM, 22(S)-hydroxycholesterol): 15 µM; Kd ([2]; read-out: KD ± SEM, 24(S)-hydroxycholesterol): 4.3 µM; Kd ([2]; read-out: KD ± SEM, 25-hydroxycholesterol): 2.4 µM; Kd ([2]; read-out: KD ± SEM, PGPC): 0.0063 µM; Kd ([2]; read-out: KD ± SEM, cholesterol): 0.092 µM; HDL Inflammatory Index in vivo (apoE deficient mice; 1 mg/kg subcutaneously, fasting female apoE deficient mice, HDL isolated 6 h after dose, normalized to LDL, Figure 3): equally effective
apoA-I: human apoA-I | 0.021 | – | – | – | 1600 ± 0.3 | 1300 ± 0.5 | 850 ± 0.033 | 820 ± 0.027 | 1800 ± 0.3 | 1200 ± 0.6 | 1300 ± 0.1 | 1000 ± 0.2 | 21 | 51 | 31 | 0.01 | 0.0065 | 2 | KD ± SEM, 4β-hydroxycholesterol [2]: BND; KD ± SEM, 20(S)-hydroxycholesterol [2]: BND; KD ± SEM, 22(S)-hydroxycholesterol [2]: BND; KD ± SEM, 24(S)-hydroxycholesterol [2]: BND; KD ± SEM, 25-hydroxycholesterol [2]: BND; KD ± SEM, cholesterol [2]: BND
